Source: patent US20080199423A1, “Methods of Using Apo2l Receptor Agonists and Ink Cell Activators” (GENENTECH, INC., priority 2004, published 2008)

Assays:
[1] = system: NK cells; assay: Microarray (Affymetrix U133) gene expression analysis of poly(I:C)-treated NK cells; assay type: cell-based, human; conditions: for FoldChange / log10-FoldChange: relative to untreated NK cells
Method: A microarray based gene expression analysis using high-density oligonucleotide arrays (GeneChip, Affymetrix) was performed using RNA from resting and poly(I:C)-treated NK cells (NK cells were obtained and purified from 4 healthy donors using the technique described in Example 1 above). The NK cells were treated with poly(I:C) (50 μg/ml, Pharmacia) overnight in RPMI 1640 supplemented with heat inactivated 10% FCS, penicillin, streptomycin, 10 mM sodium pyruvate, 2 mM L-glutamine and 10 mM HEPES. RNA was isolated using a RNeasy kit (Qiagen), and treated with RNase-free DNase-I (Ambion) to ensure removal of contaminating DNA. NK cells were lysed in lysis buffer (50 mM HEPES pH7.5, 150 mM NaCl, 1.5 mM MgCl2, 1 mM EGTA, 10% glycerol and 1% Triton X-100, supplemented with Complete Protease Inhibitor Cocktail (Roche).
Affymetrix U133A and B GeneChip probe arrays were used to identify differentially expressed transcripts. Initially, the genes were ranked according to concordance in the pairwise comparison, and the Mann-Whitney pairwise comparison test was used to calculate significance. Genes for which the concordance was 100% were chosen for further analysis. This approach was previously validated to identify differentially expressed genes by confirming with real time RT-PCR. To determine confidence intervals shown in Table 1, the average log10-signal was computed for each probe set of the genes of interest, or the treatment and control groups. The estimated log10 fold change was defined as the difference between these averages. A pooled estimate of the standard deviation about the two groups' averages (computed separately for each probe set) was used to compute a 95% confidence interval for the log10 fold change. The estimated log10 fold change and the two endpoints of its 95% confidence interval were exponentiated back to the original signal scale, providing an estimate of fold change and a corresponding 95% confidence interval. Additional information about the U133 probe sets is available from the manufacturer, Affymetrix.
Fold change values and associated 95% confidence intervals (degree of freedom=6) were determined for genes of interest upon treatment with poly(I:C) relative to untreated NK cells. Data for each probe set present on the Affymetrix U133 chip series corresponding to the genes of interest is shown.

[2] = system: Apo2L/TRAIL mRNA in NK cells; assay: RT-QPCR of Apo2L/TRAIL message in treated NK cells; assay type: cell-based, human; conditions: NK cells treated 18 hours; normalized to RPL19
Method: In another experiment, the purified NK cells were treated for 18 hours in RPMI 1640 supplemented with heat inactivated 10% FCS, penicillin, streptomycin, 10 mM sodium pyruvate, 2 mM L-glutamine and 10 mM HEPES with poly(I:C) (50 μg/ml), R-848 (5 μg/ml) or hIFN-alpha (1000 U/ml, Sigma) in the presence or absence of 10 μg/ml cycloheximide and Apo2L/TRAIL was measured in the extracted RNA. RT-PCR was performed and the amount of cDNA was quantitated by RT-QPCR analysis, normalized to RPL19, and fold induction over control is shown in FIG. 2A. Primers were designed as per instructions (Primer Express) and sequences are: hRPL19-probe: […] (SEQ ID NO:7); hRPL19-For: […] (SEQ ID NO:8); hRPL19-Rev: […] (SEQ ID NO:9); hApo2L-probe: […] (SEQ ID NO:10); hApo2L-For: […] (SEQ ID NO:11); hApo2L-Rev: […] (SEQ ID NO:12). cDNA was analyzed for expression of RPL19 and Apo2L/TRAIL by RT-QPCR (Applied Biosystems) as described in Zarember et al., J. Immunol., 168(2):554-61 (2002). Fold increase values are expressed as arbitrary units, relative to the calibrator gene RPL19.

[3] = gene Apo2L, probe set 202687_s_at
[4] = gene Apo2L, probe set 202688_at
[5] = gene Apo2L, probe set 214329_x_at
[6] = gene CCL19, probe set 210072_at
[7] = gene CCL20, probe set 205476_at
[8] = gene CCL21, probe set 204606_at
[9] = gene FasL, probe set 211333_s_at
[10] = gene Granulysin, probe set 37145_at
[11] = gene Granulysin, probe set 205495_s_at
[12] = gene Granzyme A, probe set 205488_at
[13] = gene Granzyme B, probe set 210164_at
[14] = gene Granzyme H, probe set 210321_at
[15] = gene Granzyme M, probe set 207460_at
[16] = gene IL-8, probe set 202859_x_at
[17] = gene IL-8, probe set 211506_s_at
[18] = gene NKG2-D, probe set 205821_at
[19] = gene NKG2-D, probe set 210690_at
[20] = gene NKG2A, probe set 206785_s_at
[21] = gene NKp30, probe set 210629_x_at
[22] = gene NKp30, probe set 211581_x_at
[23] = gene NKp30, probe set 211582_x_at
[24] = gene NKp30, probe set 214181_x_at
[25] = gene NKp30, probe set 214574_x_at
[26] = gene Perforin 1, probe set 214617_at
[27] = gene TNFα, probe set 207113_s_at
[28] = poly(I:C) treatment, microarray

poly(I:C)
FoldChange [1, 3]: 13.42 | log10-FoldChange [1, 3]: 1.13 | FoldChange [1, 4]: 9.67 | log10-FoldChange [1, 4]: 0.99 | FoldChange [1, 5]: 5.85 | log10-FoldChange [1, 5]: 0.77 | FoldChange [1, 6]: 34.71 | log10-FoldChange [1, 6]: 1.54 | FoldChange [1, 7]: 7.96 | log10-FoldChange [1, 7]: 0.9 | FoldChange [1, 8]: 1.2 | log10-FoldChange [1, 8]: 0.08 | FoldChange ([1]; gene CCR7, probe set 206337_at): 4.79 | log10-FoldChange ([1]; gene CCR7, probe set 206337_at): 0.68 | FoldChange ([1]; gene FasL, probe set 210865_at): 2.37 | log10-FoldChange ([1]; gene FasL, probe set 210865_at): 0.37 | FoldChange [1, 9]: 2.49 | log10-FoldChange [1, 9]: 0.4 | FoldChange [1, 10]: 1.18 | log10-FoldChange [1, 10]: 0.07 | FoldChange [1, 11]: 1.25 | log10-FoldChange [1, 11]: 0.1 | FoldChange [1, 12]: 0.83 | log10-FoldChange [1, 12]: −0.08 | FoldChange [1, 13]: 1.04 | log10-FoldChange [1, 13]: 0.02 | FoldChange [1, 14]: 0.58 | log10-FoldChange [1, 14]: −0.24 | FoldChange [1, 15]: 0.81 | log10-FoldChange [1, 15]: −0.09 | FoldChange ([1]; gene IFNγ, probe set 210354_at): 14.45 | log10-FoldChange ([1]; gene IFNγ, probe set 210354_at): 1.16 | FoldChange ([1]; gene IL-6, probe set 205207_at): 10.43 | log10-FoldChange ([1]; gene IL-6, probe set 205207_at): 1.02 | FoldChange [1, 16]: 4.07 | log10-FoldChange [1, 16]: 0.61 | FoldChange [1, 17]: 3.42 | log10-FoldChange [1, 17]: 0.53 | FoldChange [1, 18]: 0.86 | log10-FoldChange [1, 18]: −0.07 | FoldChange [1, 19]: 0.66 | log10-FoldChange [1, 19]: −0.18 | FoldChange [1, 20]: 0.97 | log10-FoldChange [1, 20]: −0.01 | FoldChange [1, 21]: 0.38 | log10-FoldChange [1, 21]: −0.42 | FoldChange [1, 22]: 0.26 | log10-FoldChange [1, 22]: −0.59 | FoldChange [1, 23]: 0.19 | log10-FoldChange [1, 23]: −0.72 | FoldChange [1, 24]: 0.22 | log10-FoldChange [1, 24]: −0.67 | FoldChange [1, 25]: 0.25 | log10-FoldChange [1, 25]: −0.6 | FoldChange [1, 26]: 1.3 | log10-FoldChange [1, 26]: 0.12 | FoldChange [1, 27]: 2.68 | log10-FoldChange [1, 27]: 0.43 | Expression of mRNA for FasL and TNF-alpha ([1]; poly(I:C) treatment (activation of TLR3)): smaller, but reproducible increase | Decrease in expression of NKp30 in NK cells [1, 28]: 3-5 fold | Decrease in expression of granzyme H in NK cells [1, 28]: 3-5 fold | Expression of mRNAs encoding perforin, granulysin, granzymes A, B, M, NKG2D and NKp44 [1, 28]: did not significantly alter | Increase in expression of Apo2L/TRAIL in NK cells [1, 28]: ~10 fold | Increase of Apo2L/TRAIL mRNA over control [2]: 26 fold
